Article PMC5314825 (Journal of Pharmacy & Bioallied Sciences, 2016)

Target: aldose reductase (AR) (Capra hircus, UniProt A0A452EAQ3)
Assay: NADPH oxidation at […] nm with xylose as substrate
Assay type: cell-based
Details: read-out: % inhibition at 4.5 μg/ml

Q: With O=c1c(O)c(-c2ccc(O)c(O)c2)oc2cc(O)cc(O)c12 [quercetin] as the compound, how does the inhibition at 4.5 µg/mL read?
A: 64.6%
